{
  "source": "ChEMBL document CHEMBL1201862",
  "about": "“PubChem BioAssay data set” (2004)",
  "test_in_all_cases": "growth of human tumour cells (NCI), 48 h",
  "key": {"BT-549": {"system": "BT-549"}, "SNB-75": {"system": "SNB-75"}, "NCI-H460": {"system": "NCI-H460"}, "HCT-116": {"system": "HCT-116"}, "OVCAR-5": {"system": "OVCAR-5"}, "UO-31": {"system": "UO-31"}, "DU-145": {"system": "DU-145"}, "KM12": {"system": "KM12"}, "NCI-H23": {"system": "NCI-H23"}, "786-0": {"system": "786-0"}, "HOP-62": {"system": "HOP-62"}, "HT-29": {"system": "HT-29"}, "MDA-MB-231": {"system": "MDA-MB-231"}, "MDA-MB-435": {"system": "MDA-MB-435"}, "SR": {"system": "SR"}, "CCRF-CEM": {"system": "CCRF-CEM"}, "SK-OV-3": {"system": "SK-OV-3"}, "SK-MEL-28": {"system": "SK-MEL-28"}, "K562": {"system": "K562"}, "PC-3": {"system": "PC-3"}, "HCC 2998": {"system": "HCC 2998"}, "SN12C": {"system": "SN12C"}, "M14": {"system": "M14"}, "Hs-578T": {"system": "Hs-578T"}, "NCI-H226": {"system": "NCI-H226"}, "OVCAR-4": {"system": "OVCAR-4"}, "U-251": {"system": "U-251"}, "Malme-3M": {"system": "Malme-3M"}, "HOP-92": {"system": "HOP-92"}, "SF-268": {"system": "SF-268"}, "A498": {"system": "A498"}, "EKVX": {"system": "EKVX"}, "COLO 205": {"system": "COLO 205"}, "OVCAR-8": {"system": "OVCAR-8"}, "SNB-19": {"system": "SNB-19"}, "CAKI-1": {"system": "CAKI-1"}, "SF-295": {"system": "SF-295"}, "SW-620": {"system": "SW-620"}, "RXF 393": {"system": "RXF 393"}, "UACC-62": {"system": "UACC-62"}, "A549": {"system": "A549"}, "SK-MEL-5": {"system": "SK-MEL-5"}, "UACC-257": {"system": "UACC-257"}, "OVCAR-3": {"system": "OVCAR-3"}, "IGROV-1": {"system": "IGROV-1"}, "RPMI-8226": {"system": "RPMI-8226"}, "NCI-H522": {"system": "NCI-H522"}, "HCT-15": {"system": "HCT-15"}, "HL-60": {"system": "HL-60"}, "SF-539": {"system": "SF-539"}, "TK-10": {"system": "TK-10"}, "T47D": {"system": "T47D"}, "MOLT-4": {"system": "MOLT-4"}, "ACHN": {"system": "ACHN"}, "NCI/ADR-RES": {"system": "NCI/ADR-RES"}, "LOX IMVI": {"system": "LOX IMVI"}, "MCF7": {"system": "MCF7"}, "MDA-N": {"system": "MDA-N"}, "SK-MEL-2": {"system": "SK-MEL-2"}},
  "note": "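1) Cells in 96-well plates. 2) Compound, 48 h, 5 concentrations. 3) Linear interpolation between surrounding doses. 4) Unreached endpoint = highest concentration. At the GI50, growth is halved.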 The source made the active and inactive calls. No stated cut-off is given here; in the data, active = GI50 up to about 1.1 µM and inactive = higher.",
  "data": [
    {"smiles": "CN(C)CCNc1ccc2c(=O)n(CCN(C)C)c(=O)n3c4ccc(N)cc4c(=O)c1c23", "values": [
      {"measurement": "GI50", "setting": "BT-549", "value": "407 nM (active)"},
      {"measurement": "GI50", "setting": "SNB-75", "value": "78.2 nM (active)"},
      {"measurement": "GI50", "setting": "NCI-H460", "value": "< 10 nM (active)"},
      {"measurement": "GI50", "setting": "HCT-116", "value": "< 10 nM (active)"},
      {"measurement": "GI50", "setting": "OVCAR-5", "value": "99.8 nM (active)"},
      {"measurement": "GI50", "setting": "UO-31", "value": "38.2 nM (active)"},
      {"measurement": "GI50", "setting": "DU-145", "value": "66.5 nM (active)"},
      {"measurement": "GI50", "setting": "KM12", "value": "64.4 nM (active)"},
      {"measurement": "GI50", "setting": "NCI-H23", "value": "36.1 nM (active)"},
      {"measurement": "GI50", "setting": "786-0", "value": "< 10 nM (active)"},
      {"measurement": "GI50", "setting": "HOP-62", "value": "109 nM (active)"},
      {"measurement": "GI50", "setting": "HT-29", "value": "< 10 nM (active)"},
      {"measurement": "GI50", "setting": "MDA-MB-231", "value": "187 nM (active)"},
      {"measurement": "GI50", "setting": "MDA-MB-435", "value": "101 nM (active)"},
      {"measurement": "GI50", "setting": "SR", "value": "< 19.4 nM (active)"},
      {"measurement": "GI50", "setting": "CCRF-CEM", "value": "< 10 nM (active)"},
      {"measurement": "GI50", "setting": "SK-OV-3", "value": "261 nM (active)"},
      {"measurement": "GI50", "setting": "SK-MEL-28", "value": "240 nM (active)"},
      {"measurement": "GI50", "setting": "K562", "value": "< 10 nM (active)"},
      {"measurement": "GI50", "setting": "PC-3", "value": "60.8 nM (active)"},
      {"measurement": "GI50", "setting": "HCC 2998", "value": "39.2 nM (active)"},
      {"measurement": "GI50", "setting": "SN12C", "value": "< 10 nM (active)"},
      {"measurement": "GI50", "setting": "M14", "value": "120 nM (active)"},
      {"measurement": "GI50", "setting": "Hs-578T", "value": "178 nM (active)"},
      {"measurement": "GI50", "setting": "NCI-H226", "value": "< 21.5 nM (active)"},
      {"measurement": "GI50", "setting": "OVCAR-4", "value": "72.1 nM (active)"},
      {"measurement": "GI50", "setting": "U-251", "value": "26.4 nM (active)"},
      {"measurement": "GI50", "setting": "Malme-3M", "value": "116 nM (active)"},
      {"measurement": "GI50", "setting": "HOP-92", "value": "80.7 nM (active)"},
      {"measurement": "GI50", "setting": "SF-268", "value": "< 27.2 nM (active)"},
      {"measurement": "GI50", "setting": "A498", "value": "408 nM (active)"},
      {"measurement": "GI50", "setting": "EKVX", "value": "119 nM (active)"},
      {"measurement": "GI50", "setting": "COLO 205", "value": "67.5 nM (active)"},
      {"measurement": "GI50", "setting": "OVCAR-8", "value": "< 10 nM (active)"},
      {"measurement": "GI50", "setting": "SNB-19", "value": "26.1 nM (active)"},
      {"measurement": "GI50", "setting": "CAKI-1", "value": "115 nM (active)"},
      {"measurement": "GI50", "setting": "SF-295", "value": "67.1 nM (active)"},
      {"measurement": "GI50", "setting": "SW-620", "value": "< 10 nM (active)"},
      {"measurement": "GI50", "setting": "RXF 393", "value": "76.9 nM (active)"},
      {"measurement": "GI50", "setting": "UACC-62", "value": "393 nM (active)"},
      {"measurement": "GI50", "setting": "A549", "value": "< 10 nM (active)"},
      {"measurement": "GI50", "setting": "SK-MEL-5", "value": "194 nM (active)"},
      {"measurement": "GI50", "setting": "UACC-257", "value": "258 nM (active)"},
      {"measurement": "GI50", "setting": "OVCAR-3", "value": "99.5 nM (active)"},
      {"measurement": "GI50", "setting": "IGROV-1", "value": "< 12.4 nM (active)"},
      {"measurement": "GI50", "setting": "RPMI-8226", "value": "40 nM (active)"},
      {"measurement": "GI50", "setting": "NCI-H522", "value": "< 10 nM (active)"},
      {"measurement": "GI50", "setting": "HCT-15", "value": 21.1, "unit": "nM"},
      {"measurement": "GI50", "setting": "HL-60", "value": "43.4 nM (active)"},
      {"measurement": "GI50", "setting": "SF-539", "value": "39.5 nM (active)"},
      {"measurement": "GI50", "setting": "TK-10", "value": "318 nM (active)"},
      {"measurement": "GI50", "setting": "T47D", "value": "207 nM (active)"},
      {"measurement": "GI50", "setting": "MOLT-4", "value": "< 10 nM (active)"},
      {"measurement": "GI50", "setting": "ACHN", "value": "< 10 nM (active)"},
      {"measurement": "GI50", "setting": "NCI/ADR-RES", "value": "259 nM (active)"},
      {"measurement": "GI50", "setting": "LOX IMVI", "value": "77.5 nM (active)"},
      {"measurement": "GI50", "setting": "MCF7", "value": "< 12 nM (active)"},
      {"measurement": "GI50", "setting": "MDA-N", "value": "50.2 nM (active)"},
      {"measurement": "GI50", "setting": "SK-MEL-2", "value": "117 nM (active)"}
    ]}
  ]
}
